Results on six molecules are retold here after PubChem BioAssay AID1745844 (Carcinogenic Potency Database (CPDB), 2022).

Calls of active or inactive are those of the source. The rule behind the calls is not given here.

For this series, the system named is rodent lifetime carcinogenesis bioassay, tumor incidence TD50. Description: chronic cancer bioassays in animals – CPDB, compiled studies (AID 1745844).

Consider `Cc1ccc2c(c1[N+](=O)[O-])C(=O)c1ccccc1C2=O`, for which the TD50 was 1.76 mg/kg/day (mouse, strain B6C3F1, females, in feed, site: any site (literature study), lesion: several types, types named in the paper, dosed 49 weeks, study length 49 weeks); 97.3 mg/kg/day (mouse, strain B6C3F1, females, in feed, site: lung, lesion: alveolar/bronchiolar adenoma + alveolar/bronchiolar carcinoma, dosed 49 weeks, study length 49 weeks); 1.88 mg/kg/day (mouse, strain B6C3F1, females, in feed, site: subcutaneous tissue, lesion: hemangiosarcoma, dosed 49 weeks, study length 49 weeks); 1.02 mg/kg/day (mouse, strain B6C3F1, males, in feed, site: any site (literature study), lesion: several types, types named in the paper, dosed 46 weeks, study length 46 weeks); 45.5 mg/kg/day (mouse, strain B6C3F1, males, in feed, site: lung, lesion: alveolar/bronchiolar adenoma + alveolar/bronchiolar carcinoma, dosed 46 weeks, study length 46 weeks); 1.34 mg/kg/day (mouse, strain B6C3F1, males, in feed, site: subcutaneous tissue, lesion: hemangiosarcoma, dosed 46 weeks, study length 46 weeks). For the same molecule, the TD50 reads like this: (rat, strain Fischer 344, females, in feed, site: any site (literature study), lesion: several types, types named in the paper, dosed 78 weeks, study length 109 weeks) 47.1 mg/kg/day; (rat, strain Fischer 344, females, in feed, site: liver, lesion: hepatocellular adenoma + hepatocellular carcinoma + neoplastic nodule, dosed 78 weeks, study length 109 weeks) 324 mg/kg/day; (rat, strain Fischer 344, females, in feed, site: liver, lesion: hepatocellular carcinoma + neoplastic nodule, dosed 78 weeks, study length 109 weeks) 324 mg/kg/day; (rat, strain Fischer 344, females, in feed, site: liver, lesion: hepatocellular carcinoma, dosed 78 weeks, study length 109 weeks) 547 mg/kg/day; (rat, strain Fischer 344, females, in feed, site: pituitary gland, lesion: adenoma, dosed 78 weeks, study length 109 weeks) 63.4 mg/kg/day; (rat, strain Fischer 344, females, in feed, site: stomach, lesion: squamous-cell carcinoma, dosed 78 weeks, study length 109 weeks) 507 mg/kg/day. In addition, the TD50 was 131 mg/kg/day (rat, strain Fischer 344, females, in feed, site: subcutaneous tissue, lesion: fibroma, dosed 78 weeks, study length 109 weeks); 224 mg/kg/day (rat, strain Fischer 344, females, in feed, site: urinary bladder, lesion: papilloma, NOS + sarcoma, NOS + transitional-cell papilloma, dosed 78 weeks, study length 109 weeks); 31.9 mg/kg/day (rat, strain Fischer 344, males, in feed, site: any site (literature study), lesion: several types, types named in the paper, dosed 78 weeks, study length 109 weeks); 48.8 mg/kg/day (rat, strain Fischer 344, males, in feed, site: liver, lesion: hepatocellular adenoma + hepatocellular carcinoma + neoplastic nodule, dosed 78 weeks, study length 109 weeks); 48.8 mg/kg/day (rat, strain Fischer 344, males, in feed, site: liver, lesion: hepatocellular carcinoma + neoplastic nodule, dosed 78 weeks, study length 109 weeks); 89.2 mg/kg/day (rat, strain Fischer 344, males, in feed, site: liver, lesion: hepatocellular carcinoma, dosed 78 weeks, study length 109 weeks). Moreover, the TD50 reads like this: (rat, strain Fischer 344, males, in feed, site: liver, lesion: neoplastic nodule, dosed 78 weeks, study length 109 weeks) 133 mg/kg/day; (rat, strain Fischer 344, males, in feed, site: subcutaneous tissue, lesion: fibroma, dosed 78 weeks, study length 109 weeks) 25.8 mg/kg/day.

As for `O=[N+]([O-])c1ccc(-c2nc(N(CCO)CCO)c3ccccc3n2)s1`, the TD50 (rat, strain Sprague-Dawley, males, in feed, site: any site (literature study), lesion: several types, types named in the paper, dosed 50 weeks, study length 52 weeks) is 1.1 mg/kg/day; the TD50 (rat, strain Sprague-Dawley, males, in feed, site: mammary gland, lesion: adenocarcinoma, dosed 50 weeks, study length 52 weeks) was 11.5 mg/kg/day; the TD50 (rat, strain Sprague-Dawley, males, in feed, site: mammary gland, lesion: several types, types named in the paper, dosed 50 weeks, study length 52 weeks) is 6.45 mg/kg/day; the TD50 (rat, strain Sprague-Dawley, males, in feed, site: small intestine, lesion: leiomyosarcoma, dosed 50 weeks, study length 52 weeks) was found to be 3.6 mg/kg/day; the TD50 (rat, strain Sprague-Dawley, males, in feed, site: small intestine, lesion: sarcoma, dosed 50 weeks, study length 52 weeks) was 3.14 mg/kg/day.

Take `CCCCCCN(N=O)C(N)=O`: the TD50 is, setting by setting: (rat, strain Fischer 344, females, by gavage, site: forestomach, lesion: one or several types, types not named, dosed 50 weeks, study length 104 weeks) 0.848 mg/kg/day; (rat, strain Fischer 344, females, by gavage, site: lung, lesion: several types, types named in the paper, dosed 50 weeks, study length 104 weeks) 2.06 mg/kg/day; (rat, strain Fischer 344, females, by gavage, site: mammary gland, lesion: adenocarcinoma, dosed 50 weeks, study length 104 weeks) 1.73 mg/kg/day; (rat, strain Fischer 344, females, by gavage, site: uterus, lesion: several types, types named in the paper, dosed 50 weeks, study length 104 weeks) 0.579 mg/kg/day; (rat, strain Fischer 344, males, by gavage, site: all sites, lesion: mesothelioma, dosed 50 weeks, study length 104 weeks) 0.745 mg/kg/day; (rat, strain Fischer 344, males, by gavage, site: colon, lesion: one or several types, types not named, dosed 50 weeks, study length 104 weeks) 2.27 mg/kg/day. Further, the carcinogen call runs as follows: (rat, strain Fischer 344, males, by gavage, site: forestomach, lesion: one or several types, types not named, dosed 50 weeks, study length 104 weeks) “positive”; (rat, strain Fischer 344, males, by gavage, site: lung, lesion: several types, types named in the paper, dosed 50 weeks, study length 104 weeks) “positive”.

Under “rat, strain Fischer 344, males, in drinking water, site: liver, lesion: hyperplastic nodule, dosed 110 weeks, study length 129 weeks”, `CC=NO` came in with a TD50 of 445 mg/kg/day.

As for `CN(C)c1ccccc1`, the TD50 (mouse, strain B6C3F1, females, by gavage, site: any site (literature study), lesion: several types, types named in the paper, dosed 103 weeks, study length 104 weeks) is 108 mg/kg/day; the TD50 (mouse, strain B6C3F1, females, by gavage, site: forestomach, lesion: squamous-cell papilloma, dosed 103 weeks, study length 104 weeks) worked out at 99.3 mg/kg/day; the TD50 (mouse, strain B6C3F1, females, by gavage, site: liver, lesion: hepatocellular adenoma + hepatocellular carcinoma + neoplastic nodule, dosed 103 weeks, study length 104 weeks) amounted to 163 mg/kg/day; the TD50 (mouse, strain B6C3F1, females, by gavage, site: lung, lesion: alveolar/bronchiolar adenoma + alveolar/bronchiolar carcinoma, dosed 103 weeks, study length 104 weeks) was determined as 276 mg/kg/day; the TD50 (mouse, strain B6C3F1, males, by gavage, site: any site (literature study), lesion: several types, types named in the paper, dosed 103 weeks, study length 104 weeks) was 489 mg/kg/day (inactive); the TD50 (mouse, strain B6C3F1, males, by gavage, site: liver, lesion: hepatocellular adenoma + hepatocellular carcinoma + neoplastic nodule, dosed 103 weeks, study length 104 weeks) was 216 mg/kg/day. The TD50 (mouse, strain B6C3F1, males, by gavage, site: lung, lesion: alveolar/bronchiolar adenoma + alveolar/bronchiolar carcinoma, dosed 103 weeks, study length 104 weeks) was 102 mg/kg/day; the TD50 (rat, strain Fischer 344, males, by gavage, site: any site (literature study), lesion: several types, types named in the paper, dosed 103 weeks, study length 104 weeks) is 93.2 mg/kg/day; the TD50 (rat, strain Fischer 344, males, by gavage, site: splenic red pulp, lesion: osteosarcoma + sarcoma, NOS, dosed 103 weeks, study length 104 weeks) is 125 mg/kg/day; the TD50 (rat, strain Fischer 344, males, by gavage, site: splenic red pulp, lesion: sarcoma, NOS, dosed 103 weeks, study length 104 weeks) is 175 mg/kg/day. Moreover, the carcinogen call (rat, strain Fischer 344, females, by gavage, site: any site (literature study), lesion: several types, types named in the paper, dosed 103 weeks, study length 104 weeks) was “negative (inactive)”.

Turning to `CNN`, the TD50 was 29.8 mg/kg/day (hamster, strain Syrian Golden, females, in drinking water, site: cecum, lesion: polypoid adenoma, dosed 86 weeks, study length 86 weeks); 25.8 mg/kg/day (hamster, strain Syrian Golden, females, in drinking water, site: cecum, lesion: several types, types named in the paper, dosed 86 weeks, study length 86 weeks); 15.4 mg/kg/day (hamster, strain Syrian Golden, females, in drinking water, site: liver, lesion: histiocytoma, malignant, dosed 86 weeks, study length 86 weeks); 30.8 mg/kg/day (hamster, strain Syrian Golden, females, in drinking water, site: liver, lesion: several types, types named in the paper, dosed 86 weeks, study length 86 weeks); 297 mg/kg/day (inactive) (hamster, strain Syrian Golden, females, in drinking water, site: lung, lesion: angiosarcoma, dosed 86 weeks, study length 86 weeks); 50.7 mg/kg/day (hamster, strain Syrian Golden, males, in drinking water, site: cecum, lesion: polypoid adenoma, dosed 100 weeks, study length 100 weeks). Besides, the TD50 reads like this: (hamster, strain Syrian Golden, males, in drinking water, site: cecum, lesion: several types, types named in the paper, dosed 100 weeks, study length 100 weeks) 42.1 mg/kg/day; (hamster, strain Syrian Golden, males, in drinking water, site: liver, lesion: histiocytoma, malignant, dosed 100 weeks, study length 100 weeks) 9.2 mg/kg/day; (mouse, strain Swiss, females, in drinking water, site: bile duct, lesion: cholangioma, dosed 62 weeks, study length 62 weeks) 29.2 mg/kg/day; (mouse, strain Swiss, females, in drinking water, site: bile duct, lesion: several types, types named in the paper, dosed 62 weeks, study length 62 weeks) 24.6 mg/kg/day; (mouse, strain Swiss, females, in drinking water, site: liver, lesion: hepatoma, dosed 62 weeks, study length 62 weeks) 51.1 mg/kg/day; (mouse, strain Swiss, females, in drinking water, site: liver, lesion: several types, types named in the paper, dosed 113 weeks, study length 113 weeks) 47.2 mg/kg/day. Moreover, the TD50 is, setting by setting: (mouse, strain Swiss, females, in drinking water, site: lung, lesion: adenocarcinoma, dosed 113 weeks, study length 113 weeks) 5.63 mg/kg/day; (mouse, strain Swiss, females, in drinking water, site: lung, lesion: adenoma, dosed 62 weeks, study length 62 weeks) 19.6 mg/kg/day; (mouse, strain Swiss, females, in drinking water, site: lung, lesion: adenoma, dosed 113 weeks, study length 113 weeks) 4.02 mg/kg/day; (mouse, strain Swiss, females, in drinking water, site: lung, lesion: several types, types named in the paper, dosed 62 weeks, study length 62 weeks) 21.4 mg/kg/day; (mouse, strain Swiss, females, in drinking water, site: lung, lesion: several types, types named in the paper, dosed 113 weeks, study length 113 weeks) 2.98 mg/kg/day; (mouse, strain Swiss, males, in drinking water, site: all sites, lesion: malignant lymphoma, dosed 112 weeks, study length 112 weeks) 7.85 mg/kg/day. Further, the TD50 is, setting by setting: (mouse, strain Swiss, males, in drinking water, site: bile duct, lesion: several types, types named in the paper, dosed 69 weeks, study length 69 weeks) 22.5 mg/kg/day; (mouse, strain Swiss, males, in drinking water, site: liver, lesion: hepatoma, dosed 69 weeks, study length 69 weeks) 7.25 mg/kg/day; (mouse, strain Swiss, males, in drinking water, site: liver, lesion: several types, types named in the paper, dosed 69 weeks, study length 69 weeks) 4.58 mg/kg/day; (mouse, strain Swiss, males, in drinking water, site: lung, lesion: adenocarcinoma, dosed 112 weeks, study length 112 weeks) 12 mg/kg/day; (mouse, strain Swiss, males, in drinking water, site: lung, lesion: adenoma, dosed 69 weeks, study length 69 weeks) 10.1 mg/kg/day; (mouse, strain Swiss, males, in drinking water, site: lung, lesion: adenoma, dosed 112 weeks, study length 112 weeks) 2.93 mg/kg/day. Also, the TD50 (mouse, strain Swiss, males, in drinking water, site: lung, lesion: several types, types named in the paper, dosed 112 weeks, study length 112 weeks) is 2.51 mg/kg/day. Moreover, the carcinogen call (mouse, strain Swiss, females, by gavage, site: lung, lesion: one or several types, types not named, dosed 40 weeks, study length 55 weeks) is “negative (inactive)”.

One may read the TD50 as the 50% point of the dose-response relation for the toxic effect studied.
